Reference: publication PMC7806715, “Discovery of small molecules targeting the tandem tudor domain of the epigenetic factor UHRF1 using fragment-based ligand discovery” (Scientific Reports, 2021)
Positions count from the first letter of the chain named.

How the values were obtained:
[1] = target: T1, TTD-PHD RR295/296AA mutant vs. H3K9me3 peptide (Homo sapiens, UniProt Q96T88, R295A/R296A); test: TR-FRET assay: TTD-PHD RR295/296AA mutant binding to H3K9me3 peptide; assay type: biochemical; conditions: 2.5 mM 2,4-lutidine
T1 construct: made in house; host or cells: E. coli (host printed for TTD-PHD in general: Rosetta (DE3))
T1 sequence (Q96T88 123-366 R295A/R296A): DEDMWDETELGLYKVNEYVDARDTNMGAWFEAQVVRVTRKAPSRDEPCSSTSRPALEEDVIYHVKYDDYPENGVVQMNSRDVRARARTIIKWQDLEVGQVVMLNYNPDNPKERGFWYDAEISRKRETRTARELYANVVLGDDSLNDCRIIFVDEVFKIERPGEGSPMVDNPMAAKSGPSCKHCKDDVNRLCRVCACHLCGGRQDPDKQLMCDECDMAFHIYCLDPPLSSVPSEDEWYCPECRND
Description: The fragment screen was carried out on low volume 384-well white plates (Corning 4512) and the assay was performed at room temperature. […] After 1 h of incubation, the fluorescent signals at 665 nm and 620 nm of each plate were measured by the Tecan Infinite M1000 plate reader (excitation 340 nm, 60 μs lag time, and 500 μs integration time) and the TR-FRET signal was calculated by the ratio of 665 nm/620 nm fluorescent signal. For the fragment screen, on seven of the library plates there were 32-wells of DMSO control, while there were 8-wells of DMSO control in the last plate. […] The only difference was that the final concentration of […] assay, while the final concentration of His6-UHRF1-FL was 200 nM and biotin-H3K9me3 peptide was 100 nM for the His6-UHRF1-FL TR-FRET assay. The buffer pH was 7.5 for the His6-TTD-PHD and His6-UHRF1-FL assays.

[2] = target: T2, His6-TTD-PHD (Homo sapiens, UniProt Q96T88); test: Intrinsic tryptophan fluorescence of His6-TTD-PHD; assay type: binding; conditions: 3.2 µM protein
T2 construct: made in house; host or cells: Rosetta (DE3) E. coli, pMCSG7
T2 sequence (Q96T88 123-366): T1 sequence (Q96T88 123-366 R295A/R296A) with A173R, A174R
Description: The untagged TTD was diluted to 30 µM by buffer (50 mM sodium phosphate, pH 7.5, 150 mM NaCl) with or without 60 µM of H3K9me3 peptide (1–20) (Anaspec). 10 µL of diluted TTD was added into 384-well flat bottom black plate (Greiner, Cat# 781086). […] The final concentration of TTD was 15 µM and the H3K9me3 peptide (if included) was 30 µM. The experiment was performed at room temperature. […] After compound addition, the intrinsic tryptophan fluorescence was analyzed by the Tecan Infinite M1000 plate reader (excitation 280 nm, emission 334 nm). […] Tryptophan fluorescence monitors 2 , 4 - lutidine binding to His 6 - TTD, His 6 - TTD - PHD, and C - FLAG - UHRF 1 - FL . 2 , 4 - Lutidine dose - dependently quenched the tryptophan fluorescence of TTD (purple circle), while only started to show quenching effect against His 6 - TTD - PHD at mM concentration (blue diamond) . 2 , 4 - Lutidine had no effect on the fluorescence of C - FLAG - UHRF 1 - FL and the control USP 7 - UBL 1 / 2 protein . n= 3 for each data point . (Note : the standard deviation error bars are included, but the error values are often extremely small in this assay) . […]

Cc1ccnc(C)c1 [2,4-lutidine]
inhibition of binding to H3K9me3 peptide [1]: 57.6% | quenching of His6-TTD-PHD tryptophan fluorescence (in words) [2]: only at close to mM concentrations
